{
  "source": "patent US20140206624A1",
  "about": "“TREATMENT OF LEUKEMIA” (THE BRIGHAM AND WOMEN'S HOSPITAL, INC., priority 2011, published 2014)",
  "format_in_all_cases": "in vivo, mouse",
  "key": {"[1]": {"test_system": "c-Jun, FoxO3 phosphorylation", "assay": "Western blot of BM cells from mice that succumbed to AML", "settings": "pI-pC-treated Mx1-Cre+ mice that died of AML despite deletion of FoxO1/3/4", "description": "BM cells recovered from mice that succumbed to control or myrAKT-expressing MLL-AF9-induced AML (refer to FIG. 10G) were subjected to western blot with antibodies that specifically recognize AKT, Tubulin or the phosphorylated forms of FoxO3 (pFoxO3^S256) c-JUN (pc-JUN^S63).\nBM cells recovered from mice that succumbed MLL-AF9-induced AML (refer to FIG. 5F) that were wild type or null for FoxO1/3/4 were subjected to western blot with antibodies that specifically recognize AKT, Tubulin or the phosphorylated forms of FoxO3 (pFoxO3^S256) c-JUN (pc-JUN^S63).\nBased on the observation that the JNK/c-JUN signaling pathway is activated in response to FOXO inhibition (directly or via AKT activation), whether the activation of this pathway was also initiated in vivo was examined. To this end, the phosphorylation status of c-Jun in BM cells of saline and pI-pC-treated FoxO1/3/4^floxed; Mx1-Cre+; MLL-AF9 mice (FIG. 9F) that developed overt AML was examined. Enhanced pc-Jun^Ser63 in 75% of mice that died of AML despite efficient deletion of FoxO1/3/4 (FIGS. 13A and 10C-10F) was observed. The phosphorylation status of BM cells derived from control and myrAKT-expressing leukemic mice from FIG. 10H was evaluated."}, "L-GMP population": {"test_system": "L-GMP population", "assay": "L-GMP and mature myeloid cell proportion in leukemic BM", "settings": "seven days following pI-pC, Mx1-Cre+", "protocol": "Seven days following the administration of saline or pI-pC, secondary mice transplanted with MLL-AF9-positive FoxO1/3/4^floxed; Mx1-Cre+ leukmic BM cells were euthanized. Leukemic BM cells were then isolated from each treatment condition (Saline (Ctrl) versus pI-pC (pI-pC)) were analyzed for the proportion of L-GMPs (lineage^low, Sca-1^−, cKit^hi, CD34^+, FcgRII/III^+, p=0.039; n=3).\nSeven days following the administration of saline or pI-pC, secondary mice transplanted with MLL-AF9-positive FoxO1/3/4^floxed; Mx1-Cre+ leukemic BM cells were euthanized. Leukemic BM cells were then isolated from each treatment condition (Saline (Ctrl) versus pI-pC (pI-pC)) were analyzed for the proportion of mature myeloid cells (lineage^hi, CD11b^+, p=0.0098; n=3)\nL-GMP and GMP populations were analyzed and sorted with a BD FACSARIA™ instrument (BD™ Biosciences). To analyze and isolate L-GMPs and GMPs, total BM cells were recovered from flushing the tibias and femurs of leukemic and healthy mice respectively with PBS supplemented with 2% FBS and 1% Penicillin/Streptomycin (F-PBS). […] For Phosphoflow experiments, cells were stained with cKit-Ax750 and CD34-antibodies in combination with phospho-AKT^Ser473-PE, phospho-AKT^Thr308-APC or phospho-S6^Ser235/236-APC antibodies and analyzed on a FACSAria according to the following protocol: • 1. […]"}, "FoxO1, FoxO3, FoxO4": {"test_system": "FoxO1, FoxO3, FoxO4", "assay": "Excision efficiency (Real Time PCR, western blot) in BM", "description": "RNA recovered from BM was converted to cDNA and then analyzed for FoxO1 (FIG. 10C.), FoxO3 (FIG. 10D.), FoxO4 (FIG. 10E.) and GAPDH expression by quantitative Real Time PCR. Each FoxO gene expression is normalized with GAPDH expression.\nBM recovered from one saline-treated FoxO1/3/4^floxed; MLL-AF9; Mx1-Cre+ mouse (lane 1) five FoxO1/3/4^floxed; MLL-AF9; Mx1-Cre+ mice treated with pI-pC (lanes 2-6) that succumbed to AML-related death were subjected to Western blot with FoxO3 (75D8) and Tubulin antibodies."}},
  "data": [
    {"substance": "polyinosine-polycytidyline [pI-pC]", "values": [
      {"measurement": "mice with enhanced pc-Jun^Ser63", "setting": "[1]", "result": 75, "unit": "%"},
      {"measurement": "L-GMPs", "setting": "L-GMP population", "result": "immunophenotypic reduction"},
      {"measurement": "lineage^hi, CD11b^hi(+) myeloid cells", "setting": "L-GMP population", "result": "concomitant increase"},
      {"measurement": "FOXO1/3/4 expression (quantitative Real Time PCR, normalized with GAPDH)", "setting": "FoxO1, FoxO3, FoxO4; BM RNA", "result": "suppression of FOXO1/3/4 expression"},
      {"measurement": "FOXO3 (Western blot)", "setting": "FoxO1, FoxO3, FoxO4; BM of Mx1-Cre+ mice that succumbed to AML", "result": "below detection"}
    ]}
  ]
}
